In patent US20260364184A1, “COMPOUND BASED ON OXOISOINDOLINYL-SUBSTITUTED TETRAHYDROPYRIMIDINE-DIONE AND USE THEREOF” (GLUETACS THERAPEUTICS (SHANGHAI) CO., LTD., priority 2023, published 2026):
Read-outs that look alike come from different tables or passages of the source.

Experiments:
Type in all cases: cell-based
[1] = Inhibition of RPMI-8226 cell proliferation (CellTiter luminescent viability); conditions: Homo sapiens, read-out: Inhibition Rate at 10 nM (%)
[2] = test system: Human B-Cell Lymphoma Cells (RPMI-8226); assay: as above; conditions: RPMI-8226, 500 nM, read-out: Inhibition Rate at 500 nM (%)
[3] = test system: Human lung cancer cell line (H292); assay: Inhibition of H292 cell proliferation (CellTiter luminescent viability); conditions: NCI-H292, Table IM1, CDK9 inhibitor-based, 96 hours; for inhibition at 0.01 µM: H292, 10 nM, read-out: Inhibition Rate at 10 nM (%); for inhibition at 0.5 µM: H292, 500 nM, read-out: Inhibition Rate at 500 nM (%)
Procedure: The tumor cells used herein were cultured in a cell culture medium listed in table 3 at 37 °C in an incubator with 5% CO2. Prior to experimentation, all cell lines used were correctly identified by STR profiling, and tested negative for mycoplasma contamination using a mycoplasma detection kit through routine screenings.
The IC50 values of the compounds of the present disclosure (including the compounds in Table 1, Table 2, and Examples 1-468) were determined using the CellTiter-Meiluncell Luminescent Cell Viability Assay Kit from Dalian Meilun Biotech Co., Ltd. The detailed procedure is as follows: Tumor cells were seeded in 96-well cell culture plates at the densities specified in Table 4. On the following day, the test compounds of the present disclosure were subjected to serial dilution. The dilution can be performed according to one of the following two methods: • (1) The first dilution method: The test compounds of the present disclosure (including the compounds in Table 1, Table 2, and Examples 1-468) were subjected to 5-fold serial dilutions starting from a highest concentration of 2000 μM, resulting in a total of 9 concentrations from high to low (2000, 400, 80, 16, 3.2, 0.64, 0.128, 0.0256, 0.00512 μM). Subsequently, 0.5 μL of the test compound dilution was transferred into the 96-well plate containing the cells, with each well containing 100 μL of cell culture medium. […] Into the 96-well plate, the diluted test compounds and corresponding detection reagents were added, resulting in final test compound concentrations of 500 nM and 10 nM, respectively. The experimental procedure is described below using the diluted 2 μM test compound as an example.
0.5 μL of the aforementioned diluted compound of the present disclosure (including the compounds in Table 1, Table 2, and Examples 1-468) was added to the seeded cells in 100 μL of medium, yielding a final test compound concentration of 10 nM. After the cells were treated with the compounds of the present disclosure for a specified period, the cell viability assay reagent was added to the culture medium according to the kit's instructions to determine cell viability. […] All controls were treated using the same procedure as the compounds of the present disclosure. The growth inhibition curves for the compounds of the present disclosure were plotted using Prism GraphPad software, and the IC50 values were calculated therefrom.

[4] = test system: Human Multiple myeloma cell line (MM.1S); assay: Inhibition of MM.1S cell proliferation (CellTiter luminescent viability); conditions: Homo sapiens, MM1.S, Table IA5, IRAK4 inhibitor-based, 96 hours
In short: (§1)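 IC50 is fitted from luminescent viability (CellTiter-Meiluncell) curves. Nine-point, 5-fold dilution series (top stock 2000 μM) are added at 0.5 μL per 100 μL medium to cells plated the day before, with growth at 37 °C and 5% CO2.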

[5] = test system: Human Acute T Lymphoblastic Leukemia Cells (Molt-4); assay: Inhibition of Molt-4 cell proliferation (CellTiter luminescent viability); conditions: Homo sapiens, MOLT-4, 96 h, Table IA2, IRAK4 inhibitor-based, 96 hours; for inhibition at 0.01 µM: Molt-4, 10 nM, read-out: Inhibition Rate at 10 nM (%); for inhibition at 0.5 µM: Molt-4, 500 nM, read-out: Inhibition Rate at 500 nM (%)
[6] = test system: Human myeloid monocytic leukemia cell line (MV-4-11); assay: Inhibition of MV-4-11 cell proliferation (CellTiter luminescent viability); conditions: Homo sapiens, MV4-11, Table IA3, IRAK4 inhibitor-based, 96 hours
In short: as §1

IRAK4 = target: T1, IRAK4 (Homo sapiens, UniProt Q9NWZ3); assay: Western blot degradation of IRAK4; conditions: hPBMC Cell; 24 hours
T1 construct: expression of target proteins in cells; endogenous in cells
T1 sequence (Q9NWZ3 1-460): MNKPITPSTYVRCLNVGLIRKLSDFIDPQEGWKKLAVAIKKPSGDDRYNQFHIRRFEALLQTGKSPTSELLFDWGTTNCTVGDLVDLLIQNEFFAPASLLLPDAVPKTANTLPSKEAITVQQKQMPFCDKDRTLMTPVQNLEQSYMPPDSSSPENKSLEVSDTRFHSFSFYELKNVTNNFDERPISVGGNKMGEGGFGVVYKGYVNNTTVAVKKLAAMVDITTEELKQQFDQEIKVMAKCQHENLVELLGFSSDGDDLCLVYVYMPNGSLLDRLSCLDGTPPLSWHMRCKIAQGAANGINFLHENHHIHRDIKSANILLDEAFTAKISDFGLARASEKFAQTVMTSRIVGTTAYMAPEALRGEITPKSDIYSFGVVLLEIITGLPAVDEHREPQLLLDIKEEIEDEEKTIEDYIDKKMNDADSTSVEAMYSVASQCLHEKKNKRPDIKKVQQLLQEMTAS
In short: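 Cells treated with compound, lysed, and target protein detected by Western blot (SDS-PAGE, nitrocellulose transfer). DC50 taken as the concentration giving band grayscale half that of DMSO control, estimated by concentration-response fitting; remaining protein (%) from target band normalised to internal control band; degradation (%) = 1 − remaining.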

[7] = Table IA4, IRAK4 inhibitor-based, RPMI-8226, 10 nM, 96 hours
[8] = Table IA4, IRAK4 inhibitor-based, 96 hours

| SMILES | inhibition at 0.01 µM ([1]; RPMI-8226, 10 nM) | inhibition at 0.5 µM [2] | inhibition at 0.01 µM [3] | inhibition at 0.5 µM [3] | inhibition at 0.01 µM ([4]; 10 nM, read-out: Inhibition Rate at 10 nM (%)) | inhibition at 0.5 µM ([4]; 500 nM, read-out: Inhibition Rate at 500 nM (%)) | inhibition at 0.01 µM [5] | inhibition at 0.5 µM [5] | inhibition at 0.01 µM ([6]; MV-4-11, 10 nM, read-out: Inhibition Rate at 10 nM (%)) | inhibition at 0.5 µM ([6]; MV-4-11, 500 nM, read-out: Inhibition Rate at 500 nM (%)) | inhibition at 0.01 µM [1, 7] | inhibition at 0.5 µM [2, 8] | Degradation of substrate protein IRAK4 (substrate protein remaining %) (IRAK4) |
| --- | --- | --- | --- | --- | --- | --- | --- | --- | --- | --- | --- | --- | --- |
| O=C(NC1CCNCC1)c1[nH]ncc1NC(=O)c1c(Cl)cccc1Cl [AT7519, reference compound] | 0 to 5% | -20 to -15% | -5 to 0% | 5 to 10% |  |  |  |  |  |  |  |  |  |
| N#CC1(CNc2nc(-c3cc(NC4CCN(CC5CCN(c6ccc7c(c6)C(=O)N(N6CCC(=O)NC6=O)C7=O)CC5)CC4)ncc3Cl)cs2)CCOCC1 [GT-04719, 4-(((4-(5-chloro-2-((1-((1-(2-(2,4-dioxotetrahydropyrimidin-1(2H)-yl)-1,3-dioxoisoindolin-5-yl)piperidin-4-yl)methyl)piperidin-4-yl)amino)pyridin-4-yl)thiazol-2-yl)amino)methyl)tetrahydro-2H-pyran-4-carbonitrile] | 10 to 20% | 20 to 30% | 5 to 10% | 15 to 20% |  |  |  |  |  |  |  |  |  |
| O=C1CCN(N2Cc3cc(CN4CCN(c5ccc(-n6cc(NC(=O)c7coc(-c8ccnc(NCC(F)(F)F)c8)n7)c(C(F)F)n6)cc5)CC4)ccc3C2=O)C(=O)N1 [GT-05318, N-(3-(difluoromethyl)-1-(4-(4-((2-(2,4-dioxotetrahydropyrimidin-1(2H)-yl)-1-oxoisoindolin-5-yl)methyl)piperazin-1-yl)phenyl)-1H-pyrazol-4-yl)-2-(2-((2,2,2-trifluoroethyl)amino)pyridin-4-yl) oxazole-4-carboxamide] |  |  |  |  | 10 to 15% | 60 to 80% | 3 to 7% | 40 to 60% | 80 to 100% | 100 to 110% | 20 to 25% | 60 to 80% | A (0%≤substrate protein remaining %≤80%) |
| Cn1ncc(-c2nc(NC3CCN(Cc4ccc5c(c4)CN(N4CCC(=O)NC4=O)C5=O)CC3)ncc2Cl)c1CC1CC1 [GT-08212, 1-(5-((4-((5-chloro-4-(5-(cyclopropylmethyl)-1-methyl-1H-pyrazol-4-yl)pyrimidin-2-yl)amino)piperidin-1-yl)methyl)-1-oxoisoindolin-2-yl)dihydropyrimidine-2,4 (1H,3H)-dione] | 20 to 30% | 5 to 10% | 20 to 30% | 30 to 40% |  |  |  |  |  |  |  |  |  |
| N#CC1(CNc2cccc(-c3cc(NC4CCN(Cc5ccc6c(c5)C(=O)N(N5CCC(=O)NC5=O)C6=O)CC4)ncc3Cl)n2)CCOCC1 [GT-08215, 4-(((5′-chloro-2′-((1-((2-(2,4-dioxotetrahydropyrimidin-1(2H)-yl)-1,3-dioxoisoindolin-5-yl)methyl)piperidin-4-yl)amino)-[2,4′-bipyridin]-6-yl)amino)methyl)tetrahydro-2H-pyran-4-carbonitrile] | 20 to 30% | 20 to 30% | 20 to 30% | 20 to 30% |  |  |  |  |  |  |  |  |  |
| COc1cc2nn([C@H]3CC[C@H](CN4CCN(C5CCN(c6ccc7c(c6)C(=O)N(N6CCC(=O)NC6=O)C7=O)CC5(F)F)CC4)CC3)cc2cc1NC(=O)c1cccc(C(F)(F)F)n1 (stereo partly drawn) [GT-08659, N-(2-((1r,4r)-4-((4-(1-(2-(2,4-dioxotetrahydropyrimidin-1(2H)-yl)-1,3-dioxoisoindolin-5-yl)-3,3-difluoropiperidin-4-yl)piperazin-1-yl)methyl)cyclohexyl)-6-methoxy-2H-indazol-5-yl)-6-(trifluoromethyl) picolinamide] |  |  |  |  |  |  | 10 to 15% | 20 to 40% |  |  | 15 to 20% | 30 to 40% | A (0%≤substrate protein remaining %≤80%) |
| COc1cc2nn([C@H]3CC[C@H](CN4CCN(c5ccc6c(c5)C(=O)N(N5CCC(=O)NC5=O)C6=O)CC4)CC3)cc2cc1NC(=O)c1cccc(C(F)(F)F)c1 [GT-08661, N-(2-((1r,4r)-4-((4-(2-(2,4-dioxotetrahydropyrimidin-1(2H)-yl)-1,3-dioxoisoindolin-5-yl)piperazin-1-yl)methyl)cyclohexyl)-6-methoxy-2H-indazol-5-yl)-3-(trifluoromethyl)benzamide] |  |  |  |  |  |  | 15 to 20% | 15 to 20% |  |  | 20 to 25% | 25 to 30% | A (0%≤substrate protein remaining %≤80%) |
| COc1cc2nn([C@H]3CC[C@H](CN4C5CCC4CN(c4ccc6c(c4)C(=O)N(N4CCC(=O)NC4=O)C6=O)C5)CC3)cc2cc1NC(=O)c1cccc(C(F)(F)F)c1 [GT-08667, N-(2-((1r,4r)-4-((3-(2-(2,4-dioxotetrahydropyrimidin-1(2H)-yl)-1,3-dioxoisoindolin-5-yl)-3,8-diazabicyclo[3.2.1]octan-8-yl)methyl)cyclohexyl)-6-methoxy-2H-indazol-5-yl)-3-(trifluoromethyl)benzamide] |  |  |  |  |  |  | 20 to 40% | 20 to 40% |  |  | 20 to 25% | 30 to 40% | A (0%≤substrate protein remaining %≤80%) |
| COc1cc2nn([C@H]3CC[C@H](CN4CCN(c5ccc6c(c5F)C(=O)N(N5CCC(=O)NC5=O)C6=O)CC4)CC3)cc2cc1NC(=O)c1cccc(C(F)(F)F)c1 [GT-08669, N-(2-((1r,4r)-4-((4-(2-(2,4-dioxotetrahydropyrimidin-1(2H)-yl)-4-fluoro-1,3-dioxoisoindolin-5-yl)piperazin-1-yl)methyl)cyclohexyl)-6-methoxy-2H-indazol-5-yl)-3-(trifluoromethyl)benzamide] |  |  |  |  |  |  | 20 to 40% | 20 to 40% |  |  | 20 to 25% | 30 to 40% | A (0%≤substrate protein remaining %≤80%) |
